Experimental data as given in ChEMBL document CHEMBL5154921, “Discovery and Characterization of the First Nonpeptide Antagonists for the Relaxin-3/RXFP3 System” (J Med Chem, 2022).

Assays:
Relaxin-3 receptor 1 [1] = molecular target: T1, Relaxin-3 receptor 1 (Homo sapiens, UniProt Q9NSD7); test: Antagonist activity at human RXFP3 expressed in CHO-K1 cells assessed as forskolin-induced cAMP accumulation measured after 30 mins in presence of relaxin-3 by TR-FRET assay; assay type: functional, cell-based
T1 sequence (Q9NSD7 whole entry): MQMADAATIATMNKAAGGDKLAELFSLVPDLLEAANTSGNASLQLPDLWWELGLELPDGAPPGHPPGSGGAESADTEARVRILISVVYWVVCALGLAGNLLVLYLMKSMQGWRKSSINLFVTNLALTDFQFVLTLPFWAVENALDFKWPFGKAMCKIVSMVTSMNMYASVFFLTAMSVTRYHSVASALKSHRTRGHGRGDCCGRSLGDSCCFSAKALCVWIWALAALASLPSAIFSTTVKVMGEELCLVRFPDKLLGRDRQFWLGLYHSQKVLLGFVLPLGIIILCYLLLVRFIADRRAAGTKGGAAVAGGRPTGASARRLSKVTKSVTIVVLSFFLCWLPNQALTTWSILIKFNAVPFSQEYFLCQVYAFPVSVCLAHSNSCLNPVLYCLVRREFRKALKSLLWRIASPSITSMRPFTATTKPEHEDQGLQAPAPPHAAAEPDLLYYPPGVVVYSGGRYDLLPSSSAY

Relaxin-3 receptor 1 [2] = molecular target: T1, Relaxin-3 receptor 1; test: Antagonist activity at human RXFP3 expressed in CHO-K1 cells assessed as inhibition of relaxin-3 stimulated ERK1/2 phosphorylation preincubated for 15 mins followed by relaxin-3 addition for 5 mins; assay type: functional, cell-based
Relaxin-3 receptor 1 [3] = molecular target: T1, Relaxin-3 receptor 1

Compound	IC50 (Relaxin-3 receptor 1 [1])	IC50 (Relaxin-3 receptor 1 [2])	Ki (Relaxin-3 receptor 1 [3])
Cc1ccc(-c2noc(-c3ccc(NC(=O)C4CC(=O)N(CCc5ccccc5)C4)cc3)n2)cc1 (centres undefined)	> 10000 nM	–	–
H-RAAPYGVRLSGREFIRAVIFTSR-NH2	504 nM	7.82 µM	11.1 nM
